The source made the active and inactive calls. The calls are words filed in the database; no cut-off is given here.
Key:
[1] = Cytotoxicity against human BxPC3 cells assessed as reduction in cell viability after 96 hrs by CellTiter-Glo luminescence assay or methylene blue assay; format: functional, cell-based; conditions: BXPC-3, 96 h
[2] = Antiproliferative activity against human U266 cells after 96 hrs by MTT assay; format: functional, cell-based; conditions: U-266, 96 h
[3] = Cytotoxicity against human HT-29 cells expressing B-RAF V600E mutant assessed as reduction in cell viability after 96 hrs by CellTiter-Glo luminescence assay or methylene blue assay; format: functional, cell-based; conditions: HT-29, 96 h
[4] = biological target: Tyrosine-protein kinase Lck (Homo sapiens) (UniProt P06239); assay: Inhibition of human Lck assessed as remaining activity at 0.1 uM after 40 mins in presence of [gamma33P-ATP] by scintillation counting
Tyrosine-protein kinase Lck (Homo sapiens), sequence (P06239 2-509 limits assumed): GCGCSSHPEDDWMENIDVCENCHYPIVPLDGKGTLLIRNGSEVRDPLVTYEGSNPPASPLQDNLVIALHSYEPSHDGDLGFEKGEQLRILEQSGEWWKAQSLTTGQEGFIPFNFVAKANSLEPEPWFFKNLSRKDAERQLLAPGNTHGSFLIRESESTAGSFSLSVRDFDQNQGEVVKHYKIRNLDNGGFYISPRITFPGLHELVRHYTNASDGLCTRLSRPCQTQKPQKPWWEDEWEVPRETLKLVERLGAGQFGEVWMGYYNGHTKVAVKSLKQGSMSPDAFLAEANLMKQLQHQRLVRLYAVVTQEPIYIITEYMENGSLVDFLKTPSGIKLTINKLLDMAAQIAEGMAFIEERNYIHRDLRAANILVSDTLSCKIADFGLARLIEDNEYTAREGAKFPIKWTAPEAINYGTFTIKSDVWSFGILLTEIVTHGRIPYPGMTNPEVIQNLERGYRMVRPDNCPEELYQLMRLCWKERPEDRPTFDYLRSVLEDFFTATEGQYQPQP

[5] = Cytotoxicity against human SK-MEL-31 cells expressing B-RAF V600E mutant assessed as reduction in cell viability after 96 hrs by CellTiter-Glo luminescence assay or methylene blue assay; format: functional, cell-based
[6] = Cytotoxicity against human DU4475 cells expressing B-RAF V600E mutant assessed as reduction in cell viability after 96 hrs by CellTiter-Glo luminescence assay or methylene blue assay; format: functional, cell-based; conditions: DU-4475, 96 h
[7] = biological target: T1, Dual specificity mitogen-activated protein kinase kinase 1 (Homo sapiens, UniProt Q02750); assay: Inhibition of human MEK1 assessed as remaining activity at 1 uM after 40 mins in presence of [gamma33P-ATP] by scintillation counting
T1 sequence (Q02750 whole entry): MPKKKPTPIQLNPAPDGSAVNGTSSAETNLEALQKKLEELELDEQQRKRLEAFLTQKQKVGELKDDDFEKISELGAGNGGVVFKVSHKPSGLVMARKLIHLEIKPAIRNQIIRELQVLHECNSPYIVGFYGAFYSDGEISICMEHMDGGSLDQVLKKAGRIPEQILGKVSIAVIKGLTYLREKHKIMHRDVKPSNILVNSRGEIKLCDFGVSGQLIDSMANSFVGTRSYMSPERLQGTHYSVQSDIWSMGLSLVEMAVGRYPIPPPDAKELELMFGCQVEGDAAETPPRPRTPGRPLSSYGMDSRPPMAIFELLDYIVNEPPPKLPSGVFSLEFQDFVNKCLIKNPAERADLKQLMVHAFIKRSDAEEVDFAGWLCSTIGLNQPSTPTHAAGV

[8] = biological target: Nuclear factor NF-kappa-B complex (Homo sapiens) (UniProt Q00653+P19838+Q04206); assay: Inhibition of NFkappaB (unknown origin); format: protein-complex assay
Nuclear factor NF-kappa-B complex (Homo sapiens), sequence (P19838 whole entry, looked up): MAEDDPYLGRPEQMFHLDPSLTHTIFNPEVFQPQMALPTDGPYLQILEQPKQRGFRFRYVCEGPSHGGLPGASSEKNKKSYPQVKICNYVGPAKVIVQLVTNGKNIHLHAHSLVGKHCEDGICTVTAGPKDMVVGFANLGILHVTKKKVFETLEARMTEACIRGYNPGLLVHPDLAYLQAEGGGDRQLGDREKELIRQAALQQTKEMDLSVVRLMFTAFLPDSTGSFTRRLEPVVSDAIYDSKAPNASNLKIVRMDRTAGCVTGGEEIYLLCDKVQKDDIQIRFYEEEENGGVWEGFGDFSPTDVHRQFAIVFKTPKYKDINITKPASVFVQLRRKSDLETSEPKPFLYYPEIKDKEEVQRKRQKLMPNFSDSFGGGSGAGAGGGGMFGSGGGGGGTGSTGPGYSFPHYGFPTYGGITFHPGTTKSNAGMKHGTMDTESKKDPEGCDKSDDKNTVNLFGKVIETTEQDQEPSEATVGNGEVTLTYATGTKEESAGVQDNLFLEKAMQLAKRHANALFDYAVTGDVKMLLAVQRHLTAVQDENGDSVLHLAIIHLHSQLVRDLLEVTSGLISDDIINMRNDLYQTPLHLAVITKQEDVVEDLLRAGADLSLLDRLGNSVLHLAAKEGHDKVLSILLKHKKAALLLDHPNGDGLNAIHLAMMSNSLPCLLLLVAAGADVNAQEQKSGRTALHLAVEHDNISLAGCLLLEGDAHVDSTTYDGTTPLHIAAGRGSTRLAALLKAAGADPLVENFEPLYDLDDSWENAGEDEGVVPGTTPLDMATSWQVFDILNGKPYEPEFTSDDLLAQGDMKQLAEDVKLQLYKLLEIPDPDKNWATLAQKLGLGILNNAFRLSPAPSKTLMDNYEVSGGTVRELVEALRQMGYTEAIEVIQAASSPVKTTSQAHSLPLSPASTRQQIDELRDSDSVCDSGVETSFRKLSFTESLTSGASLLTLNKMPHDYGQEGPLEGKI
Nuclear factor NF-kappa-B complex (Homo sapiens), sequence (Q00653 whole entry, looked up): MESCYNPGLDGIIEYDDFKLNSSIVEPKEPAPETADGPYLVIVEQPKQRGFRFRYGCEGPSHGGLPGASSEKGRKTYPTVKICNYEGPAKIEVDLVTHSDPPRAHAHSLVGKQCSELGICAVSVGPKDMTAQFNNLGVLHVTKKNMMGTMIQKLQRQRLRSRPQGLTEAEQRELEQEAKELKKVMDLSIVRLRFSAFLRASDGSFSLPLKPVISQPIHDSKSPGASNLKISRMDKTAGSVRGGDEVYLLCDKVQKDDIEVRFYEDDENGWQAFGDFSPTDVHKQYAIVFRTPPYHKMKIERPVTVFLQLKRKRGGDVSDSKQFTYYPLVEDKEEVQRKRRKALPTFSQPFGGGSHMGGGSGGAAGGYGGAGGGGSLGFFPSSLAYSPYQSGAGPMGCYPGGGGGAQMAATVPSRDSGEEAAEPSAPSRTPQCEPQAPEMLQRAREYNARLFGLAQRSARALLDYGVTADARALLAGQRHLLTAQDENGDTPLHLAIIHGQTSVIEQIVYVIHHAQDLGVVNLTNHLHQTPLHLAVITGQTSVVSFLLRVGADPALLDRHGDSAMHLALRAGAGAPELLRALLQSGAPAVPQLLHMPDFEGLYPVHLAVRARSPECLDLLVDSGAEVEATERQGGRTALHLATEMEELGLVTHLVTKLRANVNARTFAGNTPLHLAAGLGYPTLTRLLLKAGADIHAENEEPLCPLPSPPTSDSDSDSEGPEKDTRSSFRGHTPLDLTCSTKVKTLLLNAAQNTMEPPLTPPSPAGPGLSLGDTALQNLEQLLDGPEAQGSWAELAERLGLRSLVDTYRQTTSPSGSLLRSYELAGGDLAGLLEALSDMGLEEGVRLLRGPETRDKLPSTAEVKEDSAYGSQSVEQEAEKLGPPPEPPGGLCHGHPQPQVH
Nuclear factor NF-kappa-B complex (Homo sapiens), sequence (Q04206 whole entry, looked up): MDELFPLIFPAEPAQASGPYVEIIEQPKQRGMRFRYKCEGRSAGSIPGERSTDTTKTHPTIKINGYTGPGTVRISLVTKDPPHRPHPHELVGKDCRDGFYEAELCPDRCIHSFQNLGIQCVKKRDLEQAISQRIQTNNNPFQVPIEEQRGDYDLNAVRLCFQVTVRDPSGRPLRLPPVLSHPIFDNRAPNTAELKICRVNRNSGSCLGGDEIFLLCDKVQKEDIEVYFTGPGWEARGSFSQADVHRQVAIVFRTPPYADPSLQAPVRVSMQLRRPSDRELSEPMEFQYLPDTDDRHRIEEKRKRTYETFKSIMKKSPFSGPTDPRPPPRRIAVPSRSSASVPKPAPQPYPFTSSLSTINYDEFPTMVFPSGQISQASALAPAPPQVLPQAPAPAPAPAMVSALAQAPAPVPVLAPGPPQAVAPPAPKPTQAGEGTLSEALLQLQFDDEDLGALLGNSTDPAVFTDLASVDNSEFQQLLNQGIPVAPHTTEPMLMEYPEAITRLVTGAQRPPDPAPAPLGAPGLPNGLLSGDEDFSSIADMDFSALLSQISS

[9] = Cytotoxicity against human IMR90 cells assessed as reduction in cell viability after 96 hrs by CellTiter-Glo luminescence assay or methylene blue assay; format: functional, cell-based; conditions: IMR-90, 96 h
[10] = Antitumor activity against human LOX cells expressing B-RAF V600E mutant xenografted in athymic mouse assessed as tumor regression at 20 to 40 mg/kg, iv administered for two weekly rounds of five injections daily with two-day rest period between the rounds measured twice weekly from first day of treatment; format: functional
[11] = Cytotoxicity against human MES-SA/Dx5-Rx1 cells assessed as reduction in cell viability after 96 hrs by CellTiter-Glo luminescence assay or methylene blue assay; format: functional, cell-based
[12] = Cytotoxicity against human HCT116 cells expressing K-ras G13D mutant assessed as reduction in cell viability after 96 hrs by CellTiter-Glo luminescence assay or methylene blue assay; format: functional, cell-based; conditions: HCT-116, 96 h
[13] = biological target: Tyrosine-protein kinase ABL1 (Homo sapiens) (UniProt P00519); assay: Inhibition of human Abl assessed as remaining activity at 0.1 uM after 40 mins in presence of [gamma33P-ATP] by scintillation counting
Tyrosine-protein kinase ABL1 (Homo sapiens), sequence (P00519 whole entry): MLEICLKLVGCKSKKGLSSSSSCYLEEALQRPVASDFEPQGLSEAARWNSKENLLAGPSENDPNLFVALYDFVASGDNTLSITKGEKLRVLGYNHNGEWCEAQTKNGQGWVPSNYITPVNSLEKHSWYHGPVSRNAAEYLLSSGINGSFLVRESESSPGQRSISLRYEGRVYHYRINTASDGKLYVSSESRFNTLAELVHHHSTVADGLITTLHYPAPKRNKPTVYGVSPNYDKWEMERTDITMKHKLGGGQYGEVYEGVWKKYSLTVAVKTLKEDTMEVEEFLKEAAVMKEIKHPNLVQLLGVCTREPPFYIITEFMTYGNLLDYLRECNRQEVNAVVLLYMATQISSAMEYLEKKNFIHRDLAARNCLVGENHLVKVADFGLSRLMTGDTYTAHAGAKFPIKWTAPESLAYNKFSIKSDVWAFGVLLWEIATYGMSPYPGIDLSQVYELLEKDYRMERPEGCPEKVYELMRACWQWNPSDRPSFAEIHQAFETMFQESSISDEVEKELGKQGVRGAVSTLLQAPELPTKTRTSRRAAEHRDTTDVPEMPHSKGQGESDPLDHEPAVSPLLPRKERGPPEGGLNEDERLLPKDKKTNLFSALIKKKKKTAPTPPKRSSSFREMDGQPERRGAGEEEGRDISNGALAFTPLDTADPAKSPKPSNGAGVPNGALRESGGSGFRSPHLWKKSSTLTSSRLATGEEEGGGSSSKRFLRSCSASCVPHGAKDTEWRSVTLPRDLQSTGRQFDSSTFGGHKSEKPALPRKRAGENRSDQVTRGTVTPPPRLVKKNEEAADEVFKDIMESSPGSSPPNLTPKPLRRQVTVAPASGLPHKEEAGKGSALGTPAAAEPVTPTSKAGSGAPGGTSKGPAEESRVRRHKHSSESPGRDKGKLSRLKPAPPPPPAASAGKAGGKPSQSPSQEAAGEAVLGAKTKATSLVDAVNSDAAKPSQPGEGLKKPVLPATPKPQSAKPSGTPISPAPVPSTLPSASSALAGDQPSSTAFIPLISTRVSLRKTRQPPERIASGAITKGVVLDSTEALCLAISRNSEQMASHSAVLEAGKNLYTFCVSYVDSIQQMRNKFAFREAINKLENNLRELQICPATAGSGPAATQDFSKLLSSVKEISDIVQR

[14] = Antiproliferative activity against human NALM6 cells after 96 hrs by MTT assay; format: functional, cell-based; conditions: NALM-6, 96 h
[15] = Cytotoxicity against human MDA-MB-435 cells expressing B-RAF V600E mutant assessed as reduction in cell viability after 96 hrs by CellTiter-Glo luminescence assay or methylene blue assay; format: functional, cell-based; conditions: MDA-MB-435, 96 h
[16] = Antiproliferative activity against human RPMI8226 cells after 96 hrs by MTT assay; format: functional, cell-based; conditions: RPMI-8226, 96 h
[17] = biological target: Tyrosine-protein kinase Lck (Homo sapiens) (UniProt P06239); assay: Inhibition of human Lck assessed as remaining activity at 1 uM after 40 mins in presence of [gamma33P-ATP] by scintillation counting
[18] = biological target: Tyrosine-protein kinase ABL1 (Homo sapiens) (UniProt P00519); assay: Inhibition of human Abl assessed as remaining activity at 1 uM after 40 mins in presence of [gamma33P-ATP] by scintillation counting
[19] = biological target: T1, Dual specificity mitogen-activated protein kinase kinase 1; assay: Competitive inhibition of MEK1 (unknown origin) using ERK2 as substrate after 40 mins by ELISA
[20] = Cytotoxicity against human LoVo cells expressing K-ras G13D mutant assessed as reduction in cell viability after 96 hrs by CellTiter-Glo luminescence assay or methylene blue assay; format: functional, cell-based
[21] = Cytotoxicity against human AU565 cells assessed as reduction in cell viability after 96 hrs by CellTiter-Glo luminescence assay or methylene blue assay; format: functional, cell-based; conditions: AU565, 96 h
[22] = biological target: Tyrosine-protein kinase Yes (Homo sapiens) (UniProt P07947); assay: Inhibition of human Yes assessed as remaining activity at 1 uM after 40 mins in presence of [gamma33P-ATP] by scintillation counting
Tyrosine-protein kinase Yes (Homo sapiens), sequence (P07947 2-543 limits assumed): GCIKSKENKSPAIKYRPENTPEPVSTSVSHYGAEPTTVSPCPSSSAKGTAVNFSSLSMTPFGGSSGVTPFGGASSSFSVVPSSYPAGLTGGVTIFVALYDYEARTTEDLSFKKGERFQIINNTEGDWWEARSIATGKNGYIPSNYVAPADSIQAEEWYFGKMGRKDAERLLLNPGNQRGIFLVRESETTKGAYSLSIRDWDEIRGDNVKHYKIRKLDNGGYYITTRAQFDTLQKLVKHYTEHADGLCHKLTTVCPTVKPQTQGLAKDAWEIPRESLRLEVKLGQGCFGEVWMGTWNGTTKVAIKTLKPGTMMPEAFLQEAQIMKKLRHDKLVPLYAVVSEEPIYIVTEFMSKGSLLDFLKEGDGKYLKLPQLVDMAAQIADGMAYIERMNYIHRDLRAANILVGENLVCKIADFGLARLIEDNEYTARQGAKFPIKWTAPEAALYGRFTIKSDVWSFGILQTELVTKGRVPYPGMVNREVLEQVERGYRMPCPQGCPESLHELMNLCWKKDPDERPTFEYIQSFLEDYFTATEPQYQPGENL

[23] = Cytotoxicity against human SK-MEL-24 cells expressing B-RAF V600E mutant assessed as reduction in cell viability after 96 hrs by CellTiter-Glo luminescence assay or methylene blue assay; format: functional, cell-based; conditions: SK-MEL-24, 96 h
[24] = Antiproliferative activity against human THP1 cells after 96 hrs by MTT assay; format: functional, cell-based; conditions: THP-1, 96 h
[25] = biological target: Tyrosine-protein kinase Yes (Homo sapiens) (UniProt P07947); assay: Inhibition of human Yes assessed as remaining activity at 0.1 uM after 40 mins in presence of [gamma33P-ATP] by scintillation counting
[26] = Cytotoxicity against human MES-SA cells assessed as reduction in cell viability after 96 hrs by CellTiter-Glo luminescence assay or methylene blue assay; format: functional, cell-based
[27] = Cytotoxicity against human SK-MEL-2 cells expressing N-ras Q61R mutant assessed as reduction in cell viability after 96 hrs by CellTiter-Glo luminescence assay or methylene blue assay; format: functional, cell-based; conditions: SK-MEL-2, 96 h
[28] = Cytotoxicity against human SK-MEL-3 cells expressing B-RAF V600E mutant assessed as reduction in cell viability after 96 hrs by CellTiter-Glo luminescence assay or methylene blue assay; format: functional, cell-based; conditions: SK-MEL3, 96 h
[29] = Cytotoxicity against human MCF7 cells assessed as reduction in cell viability after 96 hrs by CellTiter-Glo luminescence assay or methylene blue assay; format: functional, cell-based; conditions: MCF7, 96 h
[30] = Antiproliferative activity against human RL cells after 96 hrs by MTT assay; format: functional, cell-based
[31] = test system: LOX; assay: Antitumor activity against human LOX cells expressing B-RAF V600E mutant xenografted in athymic mouse assessed as tumor regression at 10 to 40 mg/kg, iv administered for two weekly rounds of five injections daily with two-day rest period between the rounds measured at end of study; format: functional, organism-based
[32] = Cytotoxicity against human PANC1 cells expressing K-ras G12D mutant assessed as reduction in cell viability after 96 hrs by CellTiter-Glo luminescence assay or methylene blue assay; format: functional, cell-based; conditions: PANC-1, 96 h
[33] = Cytotoxicity against human MDA-MB-231 cells expressing K-ras G13D mutant assessed as reduction in cell viability after 96 hrs by CellTiter-Glo luminescence assay or methylene blue assay; format: functional, cell-based; conditions: MDA-MB-231, 96 h
[34] = Antiproliferative activity against human K562 cells after 96 hrs by MTT assay; format: functional, cell-based; conditions: K562, 96 h
[35] = Cytotoxicity against human MIAPaCa2 cells expressing K-ras G12C mutant assessed as reduction in cell viability after 96 hrs by CellTiter-Glo luminescence assay or methylene blue assay; format: functional, cell-based; conditions: MIA PaCa-2, 96 h
[36] = Antitumor activity against human LOX cells expressing B-RAF V600E mutant xenografted in athymic mouse assessed as tumor regression at 10 mg/kg, iv administered for two weekly rounds of five injections daily with two-day rest period between the rounds measured twice weekly from first day of treatment for 3 weeks; format: functional
[37] = Cytotoxicity against human SW620 cells expressing K-ras G12V mutant assessed as reduction in cell viability after 96 hrs by CellTiter-Glo luminescence assay or methylene blue assay; format: functional, cell-based; conditions: SW-620, 96 h
[38] = Antiproliferative activity against human HL60 cells after 96 hrs by MTT assay; format: functional, cell-based; conditions: HL-60, 96 h
[39] = Cytotoxicity against human COLO205 cells expressing B-RAF V600E mutant assessed as reduction in cell viability after 96 hrs by CellTiter-Glo luminescence assay or methylene blue assay; format: functional, cell-based; conditions: COLO 205, 96 h
[40] = Cytotoxicity against human DLD1 cells expressing K-ras G13D mutant assessed as reduction in cell viability after 96 hrs by CellTiter-Glo luminescence assay or methylene blue assay; format: functional, cell-based; conditions: DLD-1, 96 h
[41] = biological target: T1, Dual specificity mitogen-activated protein kinase kinase 1; assay: Inhibition of human MEK1 assessed as remaining activity at 0.1 uM after 40 mins in presence of [gamma33P-ATP] by scintillation counting

For `CNc1cc(O)c2c(c1)/C=C/C[C@H](O)[C@H](O)C(=O)/C=C\[C@@H](C)[C@H](C)OC2=O`, the IC50 [1] was 412 nM, the IC50 [2] was 1000 nM and the IC50 [3] was 65 nM. For the same compound, the Activity [4] was 38%, the IC50 [5] was 209 nM and the IC50 [6] was 30 nM. For the same compound, the Activity [7] was 4%, the inhibition [8] was “Active” and the IC50 [9] was greater than 10000 nM. The Activity [10] was 100%, the IC50 [11] was 908 nM and the IC50 [12] was 257 nM. The Activity [13] was 69%, the IC50 [14] was 650 nM and the IC50 [15] was 50 nM. It also gave an IC50 [16] greater than 4830 nM, an Activity [17] of 3% and an Activity [18] of 22%. For the same compound, the inhibition [19] was “Active”, the IC50 [20] was 90 nM and the IC50 [21] was greater than 10000 nM. The Activity [22] was 7%, the IC50 [23] was 53 nM and the IC50 [24] was 90 nM. For the same compound, the Activity [25] was 46%, the IC50 [26] was 5780 nM and the IC50 [27] was 113 nM. It also gave an IC50 [28] of 19 nM, an IC50 [29] greater than 10000 nM and an IC50 [30] of 1620 nM. The Activity [31] was “Active”, the IC50 [32] was greater than 10000 nM and the IC50 [33] was 119 nM. For the same compound, the IC50 [34] was 1430 nM, the IC50 [35] was 582 nM and the Activity [36] was 100%. The IC50 [37] was 207 nM, the IC50 [38] was 50 nM and the IC50 [39] was 27 nM. It also gave an IC50 [40] of 466 nM and an Activity [41] of 30%.
